TGI data for 13 compounds are collected here from PubChem BioAssay (NCI).

Some test systems named below: RXF-631 renal; NCI-H23 lung; SK-OV-3 ovarian; CCRF-CEM leukemia; SW-620 colon; K-562 leukemia; LXFL 529 NSCLC; COLO 205 colon; U251 CNS; SK-MEL-5 melanoma; M19-MEL melanoma.
Holding throughout (test): DTP human tumour cell line panel, 48 h

Structures are written as SMILES.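 A five-concentration, 48-hour dose response in 96-well plates underlies each endpoint, interpolated linearly between surrounding concentrations. TGI: concentration producing complete growth inhibition.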

One may read the TGI as the concentration at which net growth stops. As to `COC(=O)C1CCC(Nc2cccc(C(F)(F)F)c2)=N1` (stereo unspecified), the TGI in the assay with RXF-631 renal, in the assay with NCI-H23 lung, with SK-OV-3 ovarian, with CCRF-CEM leukemia, in the assay with SW-620 colon and in the assay on K-562 leukemia was greater than 100 µM throughout. The TGI in the assay on LXFL 529 NSCLC, in the assay with COLO 205 colon and with U251 CNS was greater than 100 µM throughout.

Consider `N#CCC(=O)N/N=C1\C(=O)N(c2ccc(Cl)cc2)C(=O)C(=O)C1c1nc2ccccc2o1` (stereo unspecified), for which the TGI in the assay with RXF-631 renal, in the assay on NCI-H23 lung, with SK-OV-3 ovarian, in the assay with CCRF-CEM leukemia, in the assay on SK-MEL-5 melanoma and in the assay on M19-MEL melanoma was greater than 100 µM each time. The TGI in the assay on SW-620 colon, in the assay with LXFL 529 NSCLC, in the assay with COLO 205 colon and in the assay with U251 CNS was greater than 100 µM in each case.

For `C=C(CS(=O)(=O)c1ccccc1)[P+](c1ccccc1)(c1ccccc1)c1ccccc1`, the total growth inhibition concentration (TGI) is 62.7 µM in the assay with NCI-H23 lung; 81.6 µM in the assay with SK-OV-3 ovarian; 25 µM in the assay on CCRF-CEM leukemia; 29.1 µM in the assay with SK-MEL-5 melanoma; 50.4 µM in the assay on M19-MEL melanoma; 51.1 µM in the assay on SW-620 colon. The total growth inhibition concentration (TGI) in the assay with K-562 leukemia amounted to 31.7 µM.

On to `CC(=O)OC1C(CCl)OC(N=[N+]=[N-])C(OC(C)=O)C1OC(C)=O` (stereo unspecified), for which the TGI in the assay with RXF-631 renal, in the assay with NCI-H23 lung, with SK-OV-3 ovarian, in the assay on CCRF-CEM leukemia, in the assay with SK-MEL-5 melanoma and with M19-MEL melanoma was greater than 100 µM each time. Moreover, the TGI with SW-620 colon, in the assay with K-562 leukemia, in the assay with COLO 205 colon and in the assay with U251 CNS was greater than 100 µM throughout.

With `C/C(=N/NC(=O)C(N)=O)C(CC(C(=O)Nc1ccccc1C)/C(C)=N\NC(=O)C(N)=O)C(=O)Nc1ccccc1C` (stereo unspecified), the TGI in the assay on NCI-H23 lung, with SK-OV-3 ovarian, in the assay on CCRF-CEM leukemia, in the assay on SK-MEL-5 melanoma, with M19-MEL melanoma and in the assay on SW-620 colon was greater than 100 µM in each case. In addition, the TGI in the assay with K-562 leukemia, in the assay with LXFL 529 NSCLC, in the assay on COLO 205 colon and in the assay on U251 CNS was greater than 100 µM in each case.

Turning to `COc1cc2cc[n+]3c4cc(OC)c(OC)cc4c(C)cc3c2cc1OC`, the TGI in the assay with RXF-631 renal, in the assay with NCI-H23 lung, with SK-OV-3 ovarian, in the assay with CCRF-CEM leukemia, in the assay with SK-MEL-5 melanoma and in the assay on M19-MEL melanoma was greater than 100 µM throughout. In addition, the TGI in the assay with SW-620 colon, with K-562 leukemia, in the assay on LXFL 529 NSCLC, in the assay on COLO 205 colon and with U251 CNS was greater than 100 µM each time.

Consider `Clc1ccc(OC2CCO2)cc1Cl` (stereo unspecified), for which the TGI in the assay with RXF-631 renal, in the assay with NCI-H23 lung, with SK-OV-3 ovarian, with CCRF-CEM leukemia, with SK-MEL-5 melanoma and in the assay on M19-MEL melanoma was greater than 100 µM in each case. Besides, the TGI is 33.6 µM with SW-620 colon; greater than 100 µM with K-562 leukemia; greater than 100 µM in the assay with LXFL 529 NSCLC; greater than 100 µM with COLO 205 colon; greater than 100 µM with U251 CNS.

In the case of `CCN(CC)CCNC(=O)c1cccc2cc3ccccc3nc12`, the TGI is 32.8 µM with RXF-631 renal; 37.9 µM with SK-OV-3 ovarian; 41.3 µM in the assay with CCRF-CEM leukemia; 17.1 µM with SK-MEL-5 melanoma; 16.6 µM in the assay with M19-MEL melanoma; greater than 100 µM in the assay with SW-620 colon. Moreover, the TGI was greater than 100 µM in the assay on K-562 leukemia, 20.2 µM with COLO 205 colon and 81.5 µM in the assay on U251 CNS.

As to `O=c1c2cc(Br)cc(Br)c2[nH]c(=S)n1-c1ccccc1`, the concentration for total growth inhibition (TGI) with RXF-631 renal, in the assay with NCI-H23 lung, in the assay with SK-OV-3 ovarian, in the assay with CCRF-CEM leukemia, in the assay on SK-MEL-5 melanoma and in the assay on M19-MEL melanoma was greater than 100 µM each time. For the same compound, the total growth inhibition concentration (TGI) in the assay with SW-620 colon, in the assay on K-562 leukemia, in the assay on COLO 205 colon and with U251 CNS was greater than 100 µM throughout.

Consider `CN(c1ccccc1)C1C(=O)N(c2ccccc2)C1/C=C/c1ccccc1` (stereo unspecified), for which the TGI with NCI-H23 lung, in the assay with SK-OV-3 ovarian, in the assay with CCRF-CEM leukemia, with SK-MEL-5 melanoma, in the assay with M19-MEL melanoma and in the assay on SW-620 colon was greater than 100 µM throughout. Besides, the concentration for total growth inhibition (TGI) in the assay with LXFL 529 NSCLC, in the assay with COLO 205 colon and with U251 CNS was greater than 100 µM each time.

Consider `N#CC(C#N)=CSc1ccccc1`, for which the concentration for total growth inhibition (TGI) in the assay with RXF-631 renal, in the assay with NCI-H23 lung, in the assay with SK-OV-3 ovarian, with CCRF-CEM leukemia, in the assay with SK-MEL-5 melanoma and in the assay with SW-620 colon was greater than 100 µM each time. Also, the total growth inhibition concentration (TGI) with K-562 leukemia is greater than 100 µM; with LXFL 529 NSCLC, greater than 100 µM; in the assay on COLO 205 colon, 55.3 µM; in the assay with U251 CNS it was 52.4 µM.

For `O=C(O)CCC1(Br)CCCCC(Br)C1=O` (stereo unspecified), the TGI in the assay with NCI-H23 lung, in the assay with SK-OV-3 ovarian, with CCRF-CEM leukemia, in the assay with SK-MEL-5 melanoma, with M19-MEL melanoma and in the assay on SW-620 colon was greater than 100 µM throughout. Moreover, the TGI in the assay with K-562 leukemia, with LXFL 529 NSCLC, in the assay on COLO 205 colon and with U251 CNS was greater than 100 µM throughout.

As for `C=C1Oc2nc3ccccc3c(=O)n2C1(C)C`, the TGI in the assay with NCI-H23 lung, with SK-OV-3 ovarian, with CCRF-CEM leukemia, in the assay with SK-MEL-5 melanoma, with M19-MEL melanoma and in the assay on SW-620 colon was greater than 100 µM in each case. Moreover, the TGI in the assay with K-562 leukemia, in the assay on LXFL 529 NSCLC, in the assay on COLO 205 colon and in the assay on U251 CNS was greater than 100 µM throughout.
